# Source: patent US8822451B2, “Modulators of ATP-binding cassette transporters” (Vertex Pharmaceuticals Incorporated, priority 2005, dated 2014)
# Biological target: T1, […]F508-CFTR (Homo sapiens, UniProt P13569, DEL508-508)
# T1 construct: expressed in transfected cells
# Test: Assay results of Table 3: ΔF508-CFTR modulation, membrane potential optical assay (assay format not stated)
# Assay type: cell-based
# Details: NIH3T3 mouse fibroblasts stably expressing […]F508-CFTR (optical assays); for Efficacy: efficacy range; for EC50: potency range
# Source text: A. Membrane Potential Optical Methods for Assaying […]F508-CFTR Modulation Properties of Compounds
# The optical membrane potential assay utilized voltage-sensitive FRET sensors described by Gonzalez and Tsien (See, Gonzalez, J. E. and R. Y. Tsien (1995) “Voltage sensing by fluorescence resonance energy transfer in single cells” Biophys J 69(4): 1272-80, and Gonzalez, J. E. and R. Y. Tsien (1997) “Improved indicators of cell membrane potential that use fluorescence resonance energy transfer” Chem Biol 4(4): 269-77) in combination with instrumentation for measuring fluorescence changes such as the Voltage/Ion Probe Reader (VIPR) (See, Gonzalez, J. E., K. Oades, et al. (1999) “Cell-based assays and instrumentation for screening ion-channel targets” Drug Discov Today 4(9): 431-439).
# These voltage sensitive assays are based on the change in fluorescence resonant energy transfer (FRET) between the membrane-soluble, voltage-sensitive dye, DiSBAC2(3), and a fluorescent phospholipid, CC2-DMPE, which is attached to the outer leaflet of the plasma membrane and acts as a FRET donor. Changes in membrane potential (Vm) cause the negatively charged DiSBAC2(3) to redistribute across the plasma membrane and the amount of energy transfer from CC2-DMPE changes accordingly. The changes in fluorescence emission were monitored using VIPR™ II, which is an integrated liquid handler and fluorescent detector designed to conduct cell-based screens in 96- or 384-well microtiter plates.
# To identify small molecules that correct the trafficking defect associated with ΔF508-CFTR; a single-addition HTS assay format was developed. The cells were incubated in serum-free medium for 16 hrs at 37° C. in the presence or absence (negative control) of test compound. As a positive control, cells plated in 384-well plates were incubated for 16 hrs at 27° C. to “temperature-correct” […]F508-CFTR. The cells were subsequently rinsed 3× with Krebs Ringers solution and loaded with the voltage-sensitive dyes. To activate […]F508-CFTR, 10 µM forskolin and the CFTR potentiator, genistein (20 µM), were added along with Cl^−-free medium to each well. The addition of Cl^−-free medium promoted Cl^− efflux in response to […]F508-CFTR activation and the resulting membrane depolarization was optically monitored using the FRET-based voltage-sensor dyes.
# To identify potentiators of […]F508-CFTR, a double-addition HTS assay format was developed. During the first addition, a Cl^−-free medium with or without test compound was added to each well. After 22 sec, a second addition of Cl^−-free medium containing 2-10 µM forskolin was added to activate […]F508-CFTR. The extracellular Cl^− concentration following both additions was 28 mM, which promoted Cl^− efflux in response to […]F508-CFTR activation and the resulting membrane depolarization was optically monitored using the FRET-based voltage-sensor dyes.
# Bath Solution #1: (in mM) NaCl 160, KCl 4.5, CaCl2 2, MgCl2 1, HEPES 10, pH 7.4 with NaOH.
# Chloride-free bath solution: Chloride salts in Bath Solution #1 are substituted with gluconate salts.
# CC2-DMPE: Prepared as a 10 mM stock solution in DMSO and stored at −20° C.
# DiSBAC2(3): Prepared as a 10 mM stock in DMSO and stored at −20° C.
# NIH3T3 mouse fibroblasts stably expressing […]F508-CFTR are used for optical measurements of membrane potential. The cells are maintained at 37° C. in 5% CO2 and 90% humidity in Dulbecco's modified Eagle's medium supplemented with 2 mM glutamine, 10% fetal bovine serum, 1× NEAA, […]-ME, 1× pen/strep, and 25 mM HEPES in 175 cm^2 culture flasks. For all optical assays, the cells were seeded at 30,000/well in 384-well matrigel-coated plates and cultured for 2 hrs at 37° C. before culturing at 27° C. for 24 hrs for the potentiator assay. For the correction assays, the cells are cultured at 27° C. or 37° C. with and without compounds for 16-24 hoursB.
# T1 sequence (P13569 with tags, fused parts or gaps DEL508-508): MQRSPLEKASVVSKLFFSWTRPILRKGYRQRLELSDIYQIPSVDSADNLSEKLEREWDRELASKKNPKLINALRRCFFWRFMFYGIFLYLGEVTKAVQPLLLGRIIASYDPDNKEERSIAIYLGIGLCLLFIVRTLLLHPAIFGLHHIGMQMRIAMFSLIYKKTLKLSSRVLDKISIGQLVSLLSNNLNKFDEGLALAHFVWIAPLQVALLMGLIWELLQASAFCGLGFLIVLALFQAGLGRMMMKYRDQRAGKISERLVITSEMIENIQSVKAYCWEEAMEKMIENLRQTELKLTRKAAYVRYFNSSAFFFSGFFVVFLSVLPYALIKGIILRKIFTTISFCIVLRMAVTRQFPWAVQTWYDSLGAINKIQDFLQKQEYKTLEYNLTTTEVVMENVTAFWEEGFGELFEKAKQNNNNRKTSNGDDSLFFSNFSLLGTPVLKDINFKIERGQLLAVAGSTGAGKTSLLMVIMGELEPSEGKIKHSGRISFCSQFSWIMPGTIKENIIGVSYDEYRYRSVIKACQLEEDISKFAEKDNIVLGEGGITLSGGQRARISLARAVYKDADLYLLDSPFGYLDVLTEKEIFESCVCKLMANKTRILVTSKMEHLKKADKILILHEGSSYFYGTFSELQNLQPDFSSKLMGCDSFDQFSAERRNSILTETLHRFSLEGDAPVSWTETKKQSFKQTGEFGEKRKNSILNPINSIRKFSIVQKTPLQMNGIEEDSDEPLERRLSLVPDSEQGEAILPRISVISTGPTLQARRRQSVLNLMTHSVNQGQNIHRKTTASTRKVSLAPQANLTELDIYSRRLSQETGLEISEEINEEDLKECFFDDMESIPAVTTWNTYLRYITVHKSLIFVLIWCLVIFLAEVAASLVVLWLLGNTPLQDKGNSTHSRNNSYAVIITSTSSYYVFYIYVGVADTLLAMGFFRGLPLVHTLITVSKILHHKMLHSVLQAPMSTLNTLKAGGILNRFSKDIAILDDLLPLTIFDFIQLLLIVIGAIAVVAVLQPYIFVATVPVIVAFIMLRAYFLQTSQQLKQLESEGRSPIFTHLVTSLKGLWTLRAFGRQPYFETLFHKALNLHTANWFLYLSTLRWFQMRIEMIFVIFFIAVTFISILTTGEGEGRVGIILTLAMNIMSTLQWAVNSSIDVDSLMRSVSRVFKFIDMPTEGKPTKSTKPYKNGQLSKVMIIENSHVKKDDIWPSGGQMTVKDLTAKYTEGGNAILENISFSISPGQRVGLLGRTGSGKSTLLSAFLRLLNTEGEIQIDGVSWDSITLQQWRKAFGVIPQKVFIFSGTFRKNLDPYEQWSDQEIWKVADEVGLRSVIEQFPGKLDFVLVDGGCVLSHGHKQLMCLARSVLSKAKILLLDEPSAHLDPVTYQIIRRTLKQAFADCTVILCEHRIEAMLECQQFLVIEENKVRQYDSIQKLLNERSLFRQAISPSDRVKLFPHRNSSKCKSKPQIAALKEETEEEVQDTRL
EC50 [µM],Structure (SMILES),Efficacy
1 to 5,CCc1ccc(-c2cc(C(N)=O)nc(N(CC)CC)n2)cc1 [Compound 116],+++ (+++ corresponds to Efficacy greater than 100)
> 5,CN(C)c1nc(C(N)=O)cc(-c2ccccc2)n1 [Compound 9],++ (++ corresponds to Efficacy between 100 and 50)
> 5,CN(C)C(=O)c1cc(-c2ccccc2)nc(N2CCCCC2)n1 [Compound 222],++ (++ corresponds to Efficacy between 100 and 50)
> 5,CCN(CC)C(=O)C1CCCN(c2nc(C(N)=O)cc(-c3ccccc3)n2)C1 (centres unmarked) [Compound 177],++ (++ corresponds to Efficacy between 100 and 50)
1 to 5,CCCN(CC1CC1)c1nc(C(=O)N(C)C)cc(-c2ccccc2)n1 [Compound 150],++ (++ corresponds to Efficacy between 100 and 50)
< 1,CCN(CC)c1nc(C(N)=O)cc(-c2cccc(Cl)c2Cl)n1 [Compound 210],++ (++ corresponds to Efficacy between 100 and 50)
1 to 5,C=CCN(CC=C)c1nc(C(N)=O)cc(-c2ccccc2)n1 [Compound 69],+++ (+++ corresponds to Efficacy greater than 100)
> 5,CCCNc1nc(C(N)=O)cc(-c2ccccc2)n1 [Compound 30],++ (++ corresponds to Efficacy between 100 and 50)
> 5,CN(Cc1cccnc1)c1nc(C(N)=O)cc(-c2ccccc2)n1 [Compound 18],++ (++ corresponds to Efficacy between 100 and 50)
> 5,NC(=O)c1cc(-c2ccccc2)nc(N2CCC3(CC2)OCCO3)n1 [Compound 44],++ (++ corresponds to Efficacy between 100 and 50)
< 1,CCOCCN(CCOCC)c1nc(C(N)=O)cc(-c2ccccc2)n1 [Compound 190],++ (++ corresponds to Efficacy between 100 and 50)
1 to 5,NC(=O)c1cc(-c2ccccc2)nc(N2CCC3CCCCC3C2)n1 (centres unmarked) [Compound 148],++ (++ corresponds to Efficacy between 100 and 50)
> 5,NC(=O)c1cc(-c2ccccc2)nc(NCc2ccco2)n1 [Compound 216],++ (++ corresponds to Efficacy between 100 and 50)
> 5,COc1cccc(-c2cc(C(N)=O)nc(N3CCOCC3)n2)c1 [Compound 211],++ (++ corresponds to Efficacy between 100 and 50)
> 5,COc1ccccc1-c1cc(C(N)=O)nc(N2CCCCC2)n1 [Compound 205],++ (++ corresponds to Efficacy between 100 and 50)
> 5,CCN(CC)c1nc(C(N)=O)cc(-c2cccc(NC(C)=O)c2)n1 [Compound 62],++ (++ corresponds to Efficacy between 100 and 50)
< 1,CCN(CC)c1nc(C(N)=O)cc(-c2cc(OC)ccc2OC)n1 [Compound 217],++ (++ corresponds to Efficacy between 100 and 50)
1 to 5,NC(=O)c1cc(-c2ccccc2OC(F)(F)F)nc(N2CCCCC2)n1 [Compound 152],++ (++ corresponds to Efficacy between 100 and 50)
1 to 5,NC(=O)c1cc(-c2cc3ccccc3s2)nc(N2CCCCC2)n1 [Compound 170],+ (+ corresponds to Efficacy less than 50)
< 1,CCN(CC)c1nc(C(N)=O)cc(-c2ccc(F)cc2F)n1 [Compound 107],++ (++ corresponds to Efficacy between 100 and 50)
< 1,CCN(CC)c1nc(C(N)=O)cc(-c2cccc(C(F)(F)F)c2)n1 [Compound 75],++ (++ corresponds to Efficacy between 100 and 50)
> 5,CCN(CC)c1nc(C(=O)NCc2ccccc2)cc(-c2ccccc2)n1 [Compound 97],++ (++ corresponds to Efficacy between 100 and 50)

EC50 [µM],Structure (SMILES),Efficacy
> 5,O=C(c1cc(-c2ccccc2)nc(N2CC=CC2)n1)N1CC=CC1 [Compound 93],++ (++ corresponds to Efficacy between 100 and 50)
> 5,CC1CN(c2nc(C(N)=O)cc(-c3ccccc3)n2)CC(C)O1 (centres unmarked) [Compound 134],++ (++ corresponds to Efficacy between 100 and 50)
1 to 5,Cc1cccc(-c2cc(C(N)=O)nc(N3CCCCC3)n2)c1C [Compound 11],++ (++ corresponds to Efficacy between 100 and 50)
1 to 5,CCN(CC)c1nc(C(N)=O)cc(-c2ccc(F)cc2)n1 [Compound 67],+++ (+++ corresponds to Efficacy greater than 100)
1 to 5,NC(=O)c1cc(-c2ccc(Cl)cc2Cl)nc(N2CCCCC2)n1 [Compound 106],+++ (+++ corresponds to Efficacy greater than 100)
1 to 5,CCCN(CC)c1nc(C(N)=O)cc(-c2ccccc2)n1 [Compound 34],+++ (+++ corresponds to Efficacy greater than 100)
< 1,CCN(CC)c1nc(C(N)=O)cc(-c2ccccc2OC)n1 [Compound 110],+++ (+++ corresponds to Efficacy greater than 100)
1 to 5,CCN(CC)c1nc(C(N)=O)cc(-c2cccc(OC)c2)n1 [Compound 74],+++ (+++ corresponds to Efficacy greater than 100)
< 1,CCN(CC)c1nc(C(N)=O)cc(-c2ccccc2Oc2ccccc2)n1 [Compound 24],++ (++ corresponds to Efficacy between 100 and 50)
1 to 5,COc1ccc(C2(CNc3nc(C(N)=O)cc(-c4ccccc4)n3)CCCC2)cc1OC [Compound 187],++ (++ corresponds to Efficacy between 100 and 50)
1 to 5,CCCC1CCN(c2nc(C(N)=O)cc(-c3ccccc3)n2)CC1 [Compound 73],+ (+ corresponds to Efficacy less than 50)
1 to 5,CCCN(CCO)c1nc(C(N)=O)cc(-c2ccccc2)n1 [Compound 100],++ (++ corresponds to Efficacy between 100 and 50)
> 5,CC(C)c1ccc(-c2cc(C(N)=O)nc(N3CCCCC3)n2)cc1 [Compound 166],+ (+ corresponds to Efficacy less than 50)
1 to 5,CCN(CC)c1nc(C(N)=O)cc(-c2ccc(C)s2)n1 [Compound 21],+++ (+++ corresponds to Efficacy greater than 100)
1 to 5,COc1ccc(Cl)cc1-c1cc(C(N)=O)nc(N2CCCCC2)n1 [Compound 115],++ (++ corresponds to Efficacy between 100 and 50)
> 5,COc1cc2c(cc1OC)CN(c1nc(C(N)=O)cc(-c3ccccc3)n1)CC2 [Compound 49],++ (++ corresponds to Efficacy between 100 and 50)
> 5,NC(=O)c1cc(-c2ccccc2)nc(N2CCC(O)(Cc3ccccc3)CC2)n1 [Compound 143],+ (+ corresponds to Efficacy less than 50)
1 to 5,CC(C)CN(C)c1nc(C(N)=O)cc(-c2ccccc2)n1 [Compound 159],+++ (+++ corresponds to Efficacy greater than 100)
> 5,COc1cccc(-c2cc(C(N)=O)nc(NCC3CC3)n2)c1 [Compound 203],+++ (+++ corresponds to Efficacy greater than 100)
< 1,C=C(C)CN(CC)c1nc(C(N)=O)cc(-c2ccccc2)n1 [Compound 188],+++ (+++ corresponds to Efficacy greater than 100)
> 5,CC1CCN(c2nc(C(N)=O)cc(-c3ccccc3)n2)CC1 [Compound 165],+++ (+++ corresponds to Efficacy greater than 100)
